Columns and labels:
[1] = Rat CLint; assay type: in vitro ADME
Description: (§1) Compound 1 was evaluated in several well-known in vitro assays to investigate both metabolism and pharmacokinetics. Bidirectional permeability/efflux was determined in MDCK-MDR1 cells, which originate from transfection of Madin Darby canine kidney (MDCK) cells with the MDR1 gene. These assays were performed according to known methods as generally described in the following references: Conde-Ceide et al. ACS Med. Chem. Lett. 2015, 6, 716-720; Morris et al. J. Med. Chem. 2014, 57, 10192-10197; and Bubser et al. ACS Chem. Neurosci. 2014, 5, 920-942.

[2] = Rat Fu (brain); assay type: in vitro ADME
Description: as §1

[3] = Rat brain:plasma distribution; assay type: in vivo
Description: Compound 1 was evaluated in several in vivo studies to investigate its metabolism and pharmacokinetics.

[4] = Rat Fu (plasma); assay type: in vitro ADME
Description: as §1

[5] = biological target: P450 3A4 (Homo sapiens, UniProt P08684); assay: P450 3A4 inhibition; assay type: in vitro ADME
Sequence of P450 3A4 (P08684 whole entry): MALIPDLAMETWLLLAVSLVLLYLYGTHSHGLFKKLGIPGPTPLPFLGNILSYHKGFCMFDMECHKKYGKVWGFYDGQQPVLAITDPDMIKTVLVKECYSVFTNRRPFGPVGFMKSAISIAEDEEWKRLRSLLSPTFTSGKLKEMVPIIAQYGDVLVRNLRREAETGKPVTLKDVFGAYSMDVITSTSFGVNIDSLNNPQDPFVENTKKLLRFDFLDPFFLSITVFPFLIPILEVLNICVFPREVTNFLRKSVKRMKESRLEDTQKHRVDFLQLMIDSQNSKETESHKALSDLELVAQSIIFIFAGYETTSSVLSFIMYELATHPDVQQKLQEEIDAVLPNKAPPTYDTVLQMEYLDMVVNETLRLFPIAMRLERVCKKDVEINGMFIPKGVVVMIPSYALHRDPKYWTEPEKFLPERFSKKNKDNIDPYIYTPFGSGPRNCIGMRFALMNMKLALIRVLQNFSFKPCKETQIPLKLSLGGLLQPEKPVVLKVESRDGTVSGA
Description: as §1

[6] = biological target: T1, P450 1A2 (Homo sapiens, UniProt P05177); assay: P450 1A2 inhibition; assay type: in vitro ADME
T1 sequence (P05177 1-516): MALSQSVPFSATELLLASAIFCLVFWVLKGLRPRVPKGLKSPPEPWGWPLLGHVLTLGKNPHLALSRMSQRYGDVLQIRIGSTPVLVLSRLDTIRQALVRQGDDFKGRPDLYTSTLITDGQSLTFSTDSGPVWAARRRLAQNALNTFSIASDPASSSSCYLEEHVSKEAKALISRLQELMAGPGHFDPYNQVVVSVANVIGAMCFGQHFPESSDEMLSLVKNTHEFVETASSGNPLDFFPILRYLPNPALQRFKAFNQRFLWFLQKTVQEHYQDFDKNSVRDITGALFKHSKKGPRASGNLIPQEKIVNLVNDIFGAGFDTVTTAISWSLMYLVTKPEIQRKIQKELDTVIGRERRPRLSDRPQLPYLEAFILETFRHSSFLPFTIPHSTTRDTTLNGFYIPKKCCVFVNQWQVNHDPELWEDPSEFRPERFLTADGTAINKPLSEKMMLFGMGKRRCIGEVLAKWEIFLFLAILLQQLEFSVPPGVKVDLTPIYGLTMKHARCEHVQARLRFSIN
Description: as §1

[7] = test system: male Sprague-Dawley rats; assay: Reversal of amphetamine-induced hyperlocomotion in rats; assay type: in vivo, rat
Description: Drugs: d-Amphetamine hemisulfate was obtained from Sigma (St. Louis, Mo.). Salt-correction was used to determine the correct amount of the d-amphetamine hemisulfate form in milligrams to add to sterile water in order to yield a 0.75 mg/mL solution, which would be dosed at 1 mL/kg body weight of each animal. […] The solutions were formulated so that animals were injected with a volume equal to 10 mL/kg body weight for all compounds. The appropriate amount according to the dosage was mixed in 10% Tween 80 (Sigma) 90% sterile water. The mixtures were then vortexed and stored in a 39° C. sonication bath for 1 hour, until in a microsuspension (except for the highest dose, which was a suspension).
Animals: Male Sprague-Dawley rats weighing 239-300 grams and averaging 265 g (Harlan, Inc., Indianapolis, Ind.) were used. They were housed in the animal care facility certified by the American Association for the Accreditation of Laboratory Animal Care (AALAC) under a 12-hour light/dark cycle (lights on: 6 a.m.; lights off: 6 p.m.) and had free access to food and water. The animals used in this experiment were food-deprived the evening before experimentation for oral dosing of compound/vehicle. The experimental protocols performed during the light cycle were approved by the Institutional Animals Care and Use Committee of Vanderbilt University and conformed to the guidelines established by the National Research Council Guide for the Care and Use of Laboratory Animals.
Amphetamine-induced Hyperlocomotion: Male Harlan Sprague Dawley rats were habituated in Smart Open Field locomotor activity test chambers (Hamilton-Kinder, San Diego, Calif.) with 16×16 photo beams to automatically record locomotor activity. […] They were monitored for an additional 30 minutes and then injected subcutaneously with vehicle or […] amphetamine. Animals were then monitored for an additional 60 minutes, for a total of 120 minutes. Data were expressed as changes in ambulation defined as total number of beam breaks per 5 minute interval. […]
Data Analysis: Behavioral data were analyzed using a two-way ANOVA with main effects of treatment and time. […] In addition, the total number of beam breaks from the amphetamine administration (65 min) to the end of the study (120 min) was calculated and graphed. Percent Reversal was calculated as follows using Microsoft Excel: In each animal, total ambulation from t=65 to t=120 was summed. The mean of each sum was calculated in the VAMP group. Then, for each animal, Percent Reversal was calculated with the following formula: Percent Reversal=100−{[(total ambulation in each animal from t=65 to t=120)/(mean of each sum from t=65 to t=120 in VAMP group)]*100}. The mean Percent Reversal, as well as the standard error, was calculated for each dose group using GraphPad Prism V5.04.

[8] = biological target: T2, Human M4 (Homo sapiens, UniProt P08173); assay: mAChR M4 cell-based functional assay (calcium flux, potentiation of EC20 acetylcholine response)
T2 construct: expressed in transfected cells
T2 sequence (P08173 1-479): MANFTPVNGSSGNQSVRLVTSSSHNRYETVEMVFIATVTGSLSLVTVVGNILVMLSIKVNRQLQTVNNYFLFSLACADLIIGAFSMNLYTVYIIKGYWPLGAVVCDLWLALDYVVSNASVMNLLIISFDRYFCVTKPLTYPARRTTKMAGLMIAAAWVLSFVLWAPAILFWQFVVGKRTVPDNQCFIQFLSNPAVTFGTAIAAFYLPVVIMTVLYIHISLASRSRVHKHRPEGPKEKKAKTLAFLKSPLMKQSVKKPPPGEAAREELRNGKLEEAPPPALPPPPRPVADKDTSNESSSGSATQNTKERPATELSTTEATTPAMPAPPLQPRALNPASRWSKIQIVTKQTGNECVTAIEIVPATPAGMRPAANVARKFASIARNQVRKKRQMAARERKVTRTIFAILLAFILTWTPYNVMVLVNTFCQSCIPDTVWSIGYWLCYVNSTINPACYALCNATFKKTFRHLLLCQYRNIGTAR

[9] = Dog CLint; assay type: in vitro ADME
Description: as §1

- CLint scaled [1]: 78 mL/min/kg
- fraction unbound [2]: 0.016
- Kp [3]: 0.74
- Kp uu ([3]; unbound): 0.5
- fraction unbound [4]: 0.024
- IC50 [5]: 17 µM
- IC50 [6]: 23 µM
- Emax at 30 µM ([8]; % ACh maximum at 30 μM, human M4): 70.4%
- EC50 ([8]; CHO-K1 cells with human M4 and Gqi5, increase in EC20 acetylcholine response): 1.25 µM
- CLint scaled [9]: 17 mL/min/kg
Compound: Cc1nc(C)c2c(n1)sc1c(NCc3ccc(C(C)(C)O)cc3)ncnc12 [Compound 1, 2-(4-(((7,9-Dimethylthieno[2,3-d:4,5-d′]dipyrimidin-4-yl)amino)methyl)phenyl)propan-2-ol]
- percent reversal of amphetamine-induced hyperlocomotion ([7]; 1 mg/kg p.o.): 30.5%
- percent reversal of amphetamine-induced hyperlocomotion ([7]; 3 mg/kg p.o.): 41.1%
- percent reversal of amphetamine-induced hyperlocomotion ([7]; 10 mg/kg p.o.): 54.2%
